In US20110165611A1, “DUAL MODALITY DETECTION OF APOPTOSIS” (priority 2008, published 2011):
“Also recorded” adds a separate entry of the source.

Assays:
[1] = Stability of DEVD profluorophore 2 in PBS and serum-containing culture medium; format: physicochemical; details: 10 μM in PBS, 1 μM in medium, room temperature, 8 h
Experimental: Stability of DEVD profluorophore 2 in PBS and serum-containing culture medium For the stability assay, the generation of fluorescence was recorded continuously at room temperature for 8 h for a solution of 2 (10 μM) or fluorescein diacetate (10 μM) in 3 mL of PBS using a Fluorolog-3 fluorometer (Jobin Yvon, Edison, N.J.) at λex=496 nm. The procedure was repeated for a solution of 2 (1 μM) or fluorescein diacetate (1 μM) in Dulbecco's modified Eagle medium supplemented with 10% (v/v) fetal bovine serum. Cleavage of amide bond linking R110 to DEVD or hydrolysis of fluorescein diacetate would result in increased fluorescence signal.

DLD1 cells [2] = test: Fluorescence microscopy of viable and TRAIL-treated apoptotic DLD1 cells; format: cell-based, human; details: for Effect on apoptosis of DLD1 cells (annexin V staining): annexin V-Alexa Fluor 594 staining
Experimental: Fluorescence Microscopy Human epithelial cells from colorectal adenocarcinoma (DLD1) were seeded (1×10^4/well) in a 96-well plate 1 day before experiments. Apoptosis was induced by treating cells with TRAIL (100 μL, 250 ng/mL) for 2 h at 37° C. Both apoptotic and viable cells were incubated with 100 μL of 2 or 3 in (final concentration, 50 μM) for 2 h at 37° C. The cells were washed and stained with Annexin V-Alexa Fluor 594. After washing with PBS, the cells were transferred into Lab-Tek II chambered cover glass and visualized under Olympus Fluoview FV1000 confocal laser scanning microscope (FV1-ASW, Olympus, Melville, N.Y.) equipped with fluorescein isothiocyanate (wavelength: 495/519 nm) and Texas red filters (wavelength: 589/615 nm). In separate wells, TRAIL was added in the presence of 50 μM of Ac-DEVD-CHO to inhibit caspase 3 activity.
Fluorescence microscopy Human epithelial cells from colorectal adenocarcinoma (DLD1) were obtained from American Type Cell Culture (Manassas, Va.). Cells were seeded (1×10^4/well) in a 96-well plate (Corning, Lowell, Mass.) supplemented with RPMI-1640 medium plus 10% fetal bovine serum (FBS) 1 day before experiments. Apoptosis was induced by treating cells with TRAIL (100 μL, 250 ng/mL) for 2 h at 37° C. The treated apoptotic cells were collected in conical tubes, while the untreated viable cells were trypsinized. The cells were centrifuged at 3000 rpm for 5 mM. The pellets were washed with RPMI 1640 without phenol red. Both apoptotic and viable cells were incubated with 100 μL, of 2 or 3 in RPMI 1640 without phenol red (final concentration, 50 μM) for 2 h at 37° C. The cells were washed and resuspended in annexin-binding buffer (10 mM HEPES, 140 mM NaCl, and 2.5 mM CaCl2 [pH 7.4]). Five microliters of Alexa Fluor 594-annexin V conjugate was added into each 100 μl of cell suspension, and the cells were incubated for 15 min at room temperature. […]

DLD1 cells [3] = test: Cellular uptake and efflux of DEVD peptides 2 and 3, fluorescence analysis; format: cell-based, human
Experimental: Cellular uptake and efflux of DEVD peptides 2 and 3—fluorescence analysis DLD1 cells were seeded (1×10^4/well) in a 96-well plate 1 day before experiments. The DLD1 cells were sequentially treated with 100 μL of the following agents at 37° C.: (A) 25 μM each DEVD conjugate for 2 h; (B) 25 μM each DEVD conjugate for 2 h followed by TRAIL (150 ng/L) for 2 h; (C) 25 μM each DEVD conjugate for 2 h, drug-free culture medium for 2 h, and TRAIL (150 ng/L) for 2 h; and (D) 25 μM each DEVD conjugate for 2 h, drug-free culture medium for 24 h, and TRAIL (150 ng/L) for 2 h. The cells were washed with PBS twice before each medium replacement. After treatment, the cells were lysed with 100 μL of lysis buffer (Sigma) for […] at room temperature. The fluorescence intensity of cleaved R110 was measured using a TECAN microplate reader (San Jose, Calif.). The measurement parameters were as follows: excitation wavelength, 485 nm; emission wavelength, 520 nm; excitation and emission bandwidth, both 12.0 nm; gain, 50; number of flashes, 10; and integration time, 30 μs. The measurements were performed 4 times each.
Uptake and release kinetics of DEVD peptides in normal and apoptotic cells. DLD-1 cells were seeded (1×10^4/well) in 96 well plate 1 days before experiment. […] The fluorescent intensity of cleaved R110 was measured using TECAN microplate reader (San Jose, Calif.). […]

Human caspase 3 = target: T1, Human caspase 3 (Homo sapiens, UniProt P42574); test: Cleavage by caspase 3 (fluorescence emission and LC-MS); format: biochemical
T1 construct: purchased Sigma-Aldrich
T1 sequence (P42574 29-175 limits assumed): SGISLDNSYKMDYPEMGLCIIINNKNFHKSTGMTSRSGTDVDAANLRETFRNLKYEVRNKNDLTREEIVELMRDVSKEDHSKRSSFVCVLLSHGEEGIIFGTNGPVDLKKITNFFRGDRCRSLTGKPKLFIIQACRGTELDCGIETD
T1 sequence (P42574 176-277 limits assumed): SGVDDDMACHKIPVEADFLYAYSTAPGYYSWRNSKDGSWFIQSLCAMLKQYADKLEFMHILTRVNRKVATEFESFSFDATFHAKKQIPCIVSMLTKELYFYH
Experimental: Cleavage by caspase 3 Human caspase 3 (Sigma-Aldrich) (5 μg) was reconstituted with 50 μL of deionized water (100 μg/mL) and stored in aliquots at −70° C. Before its use, an aliquot of reconstituted caspase 3 was thawed and diluted 200-fold in 1× assay buffer to a final concentration of 0.5 μg/mL. Five microliters of diluted caspase 3 was then added into a solution of 2 (22 μM) in 3 mL 1× assay buffer (20 mM HEPES [pH 7.4], with 2 mM ethylenediaminetetraacetic acid, 0.1% 3-[(3-cholamidopropyl)dimethylammonio]-1-propanesulfonate, and 5 mM dithiothreitol). The reaction mixture was incubated in cuvet in dark at room temperature and the emission spectra were recorded at intervals of 0, 10, 20, 30 and 60 min on a Fluorolog 3 fluorometer (HORIBA, Edison, N.J.) with an excitation wavelength (λex) of 496 nm.
To further confirm cleavage of 2 by caspase 3, 5 μL of caspase 3 (0.5 μg/mL) was mixed with 10 μL of 1 mM solution of 2 dissolved in 1× assay buffer. After 1 h at room temperature, the reaction mixture was injected into LC-MS system.

[4] = Stability of 99mTc-chelate 4, ligand challenge with cysteine and histidine; format: physicochemical; details: 0.01 M cysteine or histidine in PBS, 37° C., 1 and 5 h
Experimental: A large excess of competing donors cysteine and histidine was used as a means of evaluating the complex's tendency to undergo transchelation. […] The samples were incubated at 37° C. and analyzed by HPLC at 1- and 5-h intervals.

apoptotic liver = test: Gamma imaging in murine liver apoptosis model (anti-Fas); format: in vivo, mouse; details: 300 μCi i.v., imaging 120 min after injection
From the text: We used a murine liver apoptosis model to evaluate whether chelate 4 could be used to image apoptosis in vivo. F. G. Blankenberg, J. F. Tait, R. E. Davis, L. Naumovski, K. Ohtsuki, S. Kopiwoda, M. J. Abrams, M. Darkes, R. C. Robbins, H. T. Maecker, H. W. Strauss, Proc. Natl. Acad. Sciences USA 1998, 95, 6349-6354; F. G. Blankenberg, P. D. Katsikis, J. F. Tait, R. E. Davis, L. Naumovski, K. Ohtsuki, S. Kopiwoda, M. J. Abrams, H. W. Strauss, J. Nucl. Med. 1999, 40, 184-191. Male Balb/c mice (10-12 weeks old, weight 20-25 g) were injected intravenously with an anti-Fas monoclonal antibody (10 μg/mouse) to induce apoptosis in the liver. […] Radionuclide imaging was acquired 120 min after the injection of 4.
Gamma Imaging and Biodistribution For γ-imaging study, two male Balb/c mice (10-12 weeks old, weight 20-25 g) (Charles River, Wilmington, Mass.) were injected intravenously with a purified anti-Fas monoclonal antibody (10 μg/mouse) (Pharmingen, San Diego, Calif.). Two mice injected with PBS were used as a control group. […] The organs of interest were excised and weighed, and radioactivity was counted in a gamma counter. The stomach and intestines were emptied of food contents prior to radioactivity measurements. The percentage of injected dose per gram (% ID/g) was calculated by dividing the % ID/organ by the weight of the tissue.

DLD1 cells [5] = test: Cellular uptake and efflux of 99mTc-chelate 4, radiotracer analysis; format: cell-based, human; details: for Efflux / retention in DLD1 cells after wash: 2 h loading, fresh medium 60-180 min
Experimental: The medium was replaced with 2 mL of medium containing radiotracers 99 mTc-chelate 4 [Ac-DEVD-R110-D-SAAC-99mTc(CO)3] (˜40 μCi/mL) or its fragment R110-D-SAAC-99 mTc(CO)3 (˜40 μCi/mL). The cells were subsequently incubated for 60 and 120 min before the monolayers were scraped, transferred into 5-mL tubes. The tubes were briefly vortexed and 100 μL DLD1 cell suspension were transferred into a microcentrifuge tube containing 500 μL of a 75:25 mixture of silicon oil (density 1.05, Aldrich) and mineral oil (density 0.872, Acros). The mixture was centrifuged at 14,000 rpm for 5 min. After freezing the tubes with liquid nitrogen, the bottom tips containing the cell pellet were cut off. The cell pellets and the supernatants were counted with a γ-counter (Perkin-Elmer). The protein content in 100 μl cell suspension was quantified in a separate experiment using the Bio-Rad protein assay kit according to the manufacturer's protocol. For efflux study, cells were incubated with each radiotracer for 2 hrs, then the medium was removed and the cells washed with medium twice. The cells were incubated with 2 mL of fresh medium for additional 60 min, 120 min, and 180 min. The radioactivity in the cell pellets and media were counted as described before. Activity ratios of the cell pellet to medium ([cpm/g protein in pellet]/[cpm/g medium]) were calculated and plotted against time. The experiments were performed in pentaplicate.

[6] = tested on: activated caspase 3 in liver; test: Fluorescence microscopic analysis of liver from mice injected 99mTc-chelate 4; format: in vivo, mouse; details: anti-Fas-treated vs PBS-treated liver, 2 h after i.v. injection
Experimental: The tissue slices were fixed using 4% paraformaldehyde for 15 min at room temperature. After PBS washing, the samples were blocked with 10% goat serum at 37° C. for 30 min, followed by 1 μg/mL of rabbit anti-mouse-activated caspase 3 monoclonal antibody (R&D Systems, Minneapolis, Minn.) at 4° C. overnight. Texas red-conjugated goat anti-rabbit IgG (1:1000, Invitrogen, Eugene, Oreg.) was used as second antibody at room temperature for 1 h. Cell nuclei were counterstained with 3 μg/mL of Hoechst 33342 at room temperature for 5 min. The slices were mounted and visualized under a Zeiss Axio Observer.Z1 fluorescence microscope (Carl Zeiss MicroImaging GmbH, Göttingen, Germany).

liver = test: Radio-HPLC analysis of liver extracts from mice injected 99mTc-chelate 4; details: mouse, in vivo
Experimental: Two hours after intravenous injection of 4 (1 mCi, 80 μg, 0.2 mL) into a mouse treated with […] and a mouse treated with PBS 2 h prior to the injection of the radiotracer, mice were killed and livers were removed and ground at 4° C. using a Dounce homogenizer (Polytron, […], Switzerland) in 5 mL of acetonitrile/methanol (3:1, v/v). After sequential high-speed centrifugation (100,000 g for 20 min) to remove cellular debris and insoluble proteins, the supernatants were concentrated and injected into the radio-HPLC system (condition: solvent A, 0.01 M NH4OAc in water; solvent B, acetonitrile; gradient: 0-80% B in A over 40 min, flow rate 1.0 mL/min, C18 4.6×250 mm, 5-μm column).

Molecule: CC(=O)Oc1ccc2c(c1)Oc1cc(OC(C)=O)ccc1C21OC(=O)c2ccccc21 [fluorescein diacetate, reference compound]
- Stability in PBS and culture medium with 10% FBS (generation of fluorescence) [1]: relatively rapid hydrolysis in both solutions

Molecule: Ac-DEVD-CHO
- Effect of caspase 3 inhibitor on fluorescent signal from 3 (DLD1 cells [2]; 50 μM Ac-DEVD-CHO with TRAIL): significantly reduced the fluorescent signal from 3
- Effect on apoptosis of DLD1 cells (annexin V staining) (DLD1 cells [2]): did not inhibit the apoptosis of DLD1 cells

Molecule: Ac-DEVD-R110-D-SAAC-Fmoc [Compound 2]
- Uptake in viable tumor cells: reversibility (efflux in drug-free medium 2 or 24 h) (DLD1 cells [3]; 25 μM 2 h, then drug-free medium, then TRAIL): reversible process
- Increase of fluorescence intensity upon TRAIL treatment (DLD1 cells [3]; 25 μM 2 h followed by TRAIL (150 ng/mL) 2 h vs no TRAIL): 27 fold
- Stability in PBS and culture medium with 10% FBS (generation of fluorescence) [1]: stable in both PBS and culture medium supplemented with serum; also recorded: remarkable stability in both PBS and culture medium supplemented with serum
- Fluorescence change after introduction of caspase 3 (Human caspase 3; 22 μM, over 60 min, λex 496 nm): large increase in fluorescence
- Fluorescence emission without exposure to caspase 3 (Human caspase 3; 22 μM, λex 496 nm, room temperature): near-baseline emission
- Site of hydrolytic cleavage by caspase 3 (LC-MS) (Human caspase 3; 1 h at room temperature): occurred selectively at the amide bond between DEVD and R110
- Degradation on incubation with caspase 3 (Human caspase 3; fluorescence increase and LC-MS): completely degraded

Molecule: Ac-DEVD-R110-D-SAAC-^99mTc(CO)3 [^99mTc-chelate 4]
- Transchelation under cysteine/histidine challenge [4]: No transchelation was observed
- Liver uptake, anti-Fas-treated vs PBS-treated mice (radionuclide imaging) (apoptotic liver): Significantly higher uptake
- Uptake in DLD1 cells (cell pellet to medium activity ratio) (DLD1 cells [5]; 1-2 h of incubation, compared with fragment): accumulated significantly more in the cells than its fragment did; also recorded: significantly higher uptake in DLD1 cells
- Efflux / retention in DLD1 cells after wash (DLD1 cells [5]): washed out of the cells over time; also recorded: gradually washed out
- Cleavage of fluorogenic probe in liver sections [6]: shown only in the apoptotic liver but not in the normal liver

Molecule: R110-D-SAAC-^99mTc(CO)3
- Retention of degradation product in liver (liver): retained in the apoptotic liver in its intact form
- Permeability to plasma membrane compared with parent substrate (DLD1 cells [5]): less permeable to plasma membrane
- Efflux / retention in DLD1 cells after wash (DLD1 cells [5]): trapped in the cells

B1: TRAIL: tumor necrosis factor-related apoptosis-inducing ligand, recombinant human (protein, UniProt P50591 1-281, looked up)
Tumor necrosis factor ligand …: MAMMEVQGGPSLGQTCVLIVIFTVLLQSLCVAVTYVYFTNELKQMQDKYSKSGIACFLKEDDSYWDPNDEESMNSPCWQVKWQLRQLVRKMILRTSEETISTVQEKQQNISPLVRERGPQRVAAHITGTRGRSNTLSSPNSKNEKALGRKINSWESSRSGHSFLSNLHLRNGELVIHEKGFYYIYSQTYFRFQEEIKENTKNDKQMVQYIYKYTSYPDPILLMKSARNSCWSKDAEYGLYSIYQGGIFELKENDRIFVSVTNEHLIDMDHEASFFGAFLVG
- Effect on apoptosis of DLD1 cells (annexin V staining) (DLD1 cells [2]): induced significant apoptosis
